From ChEMBL document CHEMBL1158059, “Oculatol, oculatolide, and A-nor sterols from the sponge Haliclona oculata” (J Nat Prod, 2006) come the findings set out here.

Assay [1] deals with T1, Tyrosine-protein phosphatase non-receptor type 1 (Homo sapiens, UniProt P18031).
T1 sequence (P18031 whole entry): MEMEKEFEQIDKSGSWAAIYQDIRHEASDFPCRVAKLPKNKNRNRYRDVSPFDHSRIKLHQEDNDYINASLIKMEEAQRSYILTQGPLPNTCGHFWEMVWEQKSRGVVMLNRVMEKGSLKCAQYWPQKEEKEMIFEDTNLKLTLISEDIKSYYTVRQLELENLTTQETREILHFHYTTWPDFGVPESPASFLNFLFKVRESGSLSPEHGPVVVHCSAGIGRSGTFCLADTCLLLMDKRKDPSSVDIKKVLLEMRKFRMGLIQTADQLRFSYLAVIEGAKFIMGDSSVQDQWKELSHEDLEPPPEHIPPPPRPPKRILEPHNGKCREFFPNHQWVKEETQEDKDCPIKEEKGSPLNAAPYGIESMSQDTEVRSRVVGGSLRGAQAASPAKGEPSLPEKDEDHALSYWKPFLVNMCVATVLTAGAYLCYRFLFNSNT
In words: Inhibition of PTP1B.

The next assay has as its target Acetylcholinesterase (Homo sapiens, UniProt P22303). In words: Inhibition of AChE.
The target of assay [2] is T2, Prostaglandin G/H synthase 2 (Homo sapiens, UniProt P35354).
T2 sequence (P35354 whole entry): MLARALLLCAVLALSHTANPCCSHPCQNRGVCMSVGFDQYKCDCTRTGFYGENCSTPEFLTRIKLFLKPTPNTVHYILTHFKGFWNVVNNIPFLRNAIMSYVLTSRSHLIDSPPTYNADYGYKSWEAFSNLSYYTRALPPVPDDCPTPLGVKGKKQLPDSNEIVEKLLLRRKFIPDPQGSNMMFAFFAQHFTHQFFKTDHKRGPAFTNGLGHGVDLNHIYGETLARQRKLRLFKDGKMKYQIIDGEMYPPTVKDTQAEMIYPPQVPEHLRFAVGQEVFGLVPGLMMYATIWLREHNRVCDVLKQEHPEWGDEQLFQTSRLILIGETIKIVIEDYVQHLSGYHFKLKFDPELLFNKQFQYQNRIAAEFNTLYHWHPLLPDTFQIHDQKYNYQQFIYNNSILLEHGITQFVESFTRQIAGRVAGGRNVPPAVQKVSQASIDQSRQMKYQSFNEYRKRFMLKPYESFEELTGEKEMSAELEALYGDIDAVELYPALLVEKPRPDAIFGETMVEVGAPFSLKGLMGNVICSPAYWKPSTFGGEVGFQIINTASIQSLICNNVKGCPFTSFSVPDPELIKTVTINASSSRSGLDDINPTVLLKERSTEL
Description: Inhibition of COX2.

The test system of the next assay is HL-60. In words: Cytotoxicity against human HL-60 cells. The format is functional, cell-based.
In the next assay the test system is A549. In words: Cytotoxicity against human A549 cells. The assay is classed as functional, cell-based.
The next assay has as its system Bel-7402. In words: Cytotoxicity against human Bel-7402 cells. The format is functional, cell-based.
In a further assay the test system is HeLa. Description: Cytotoxicity against human HeLa cells. The assay is classed as functional, cell-based.

In brackets after ≈: the same amount, converted by molar mass. A value given as a limit tells only on which side of the number the result lay.

Acetylcholinesterase, sequence (P22303 whole entry): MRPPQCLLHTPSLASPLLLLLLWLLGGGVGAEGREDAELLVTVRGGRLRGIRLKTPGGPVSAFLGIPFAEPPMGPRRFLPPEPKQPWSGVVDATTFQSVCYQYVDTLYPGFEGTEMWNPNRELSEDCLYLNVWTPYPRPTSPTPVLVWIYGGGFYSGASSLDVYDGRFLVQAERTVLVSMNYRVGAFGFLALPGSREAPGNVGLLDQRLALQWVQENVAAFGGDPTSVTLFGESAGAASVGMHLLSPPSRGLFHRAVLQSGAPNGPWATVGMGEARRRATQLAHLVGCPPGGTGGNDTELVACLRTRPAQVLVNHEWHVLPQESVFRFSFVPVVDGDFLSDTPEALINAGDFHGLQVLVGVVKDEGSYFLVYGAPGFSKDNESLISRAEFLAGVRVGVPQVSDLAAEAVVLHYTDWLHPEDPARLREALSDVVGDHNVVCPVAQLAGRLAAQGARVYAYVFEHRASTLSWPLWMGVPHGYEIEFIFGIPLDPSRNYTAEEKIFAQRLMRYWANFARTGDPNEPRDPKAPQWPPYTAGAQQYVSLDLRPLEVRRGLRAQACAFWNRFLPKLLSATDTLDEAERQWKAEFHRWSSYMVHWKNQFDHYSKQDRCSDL

Turning to `C=C(CC[C@@H](C)[C@H]1CC[C@H]2[C@@H]3CC=C4C(=O)[C@](O)(C(=O)OCC)C[C@]4(C)[C@H]3CC[C@]12C)C(C)C`, the IC50 was more than 21.2 µM in assay [1]; more than 21.2 µM against Acetylcholinesterase; more than 21.2 µM in assay [2]; 0.32 µg/mL (≈ 0.68 µM) with HL-60; 0.47 µg/mL (≈ 0.999 µM) in the assay with A549; 0.73 µg/mL (≈ 1.55 µM) with Bel-7402. In addition, the IC50 with HeLa was more than 10 µg/mL.
